“Also recorded” adds a separate entry of the source.
Columns and labels:
[1] = tested on: ATP-induced intracellular calcium signaling in FRT cells; test: Intracellular calcium measurement (Fluo-4) in FRT cells; assay type: cell-based, rat; details: dose-dependent, 100 μM ATP
Method: (§1) (A) Representative Fluo4 fluorescence traces from 3 independent experiments in FRT cells. […] (B,C) Representative apical membrane currents from 3–4 independent experiments in FRT cells expressing human ANO1. […] (D) Representative YFP fluorescence traces in FRT cells expressing human ANO2. […] (E) Representative Fluo4 fluorescence traces from 3 independent experiments in FRT cells. Cells were pretreated with DCPIB for 10 min followed by application of 100 μM ATP. (F) Representative apical membrane currents in FRT cells expressing human ANO1.
FRT cells were plated on 96-well black-walled microplates and loaded with Fluo-4 NW according to the manufacturer’s protocol (Invitrogen, Carlsbad, CA, USA). […] The 96-well plates were transferred to a plate reader for fluorescence assay.

hERG = details: 10 μM, Xenopus oocytes overexpressed with hERG; cited from earlier work
human CFTR = biological target: T1, human CFTR (Homo sapiens, UniProt P13569); test: Apical membrane current of CFTR in FRT cells expressing human CFTR; assay type: cell-based; details: apical membrane current, FRT cells expressing human CFTR, 20 μM forskolin, n = 5; read-out: CFTR chloride channel IC50
T1 construct: expressed in transfected cells; host or cells: Fisher rat thyroid (FRT) cells
Excerpt: […]. (C) Summary of dose-response (mean ± S.E., n = 5). […]. (F) Summary of dose−response (mean ± S.E., n = 6).
(§2) Snapwell inserts containing ANO1(abc) or CFTR-expressing FRT cells were mounted in Ussing chambers (Physiological Instruments, San Diego, CA). The basolateral hemichamber was filled with buffer solution (in mM): 120 NaCl, 5 KCl, 1 MgCl2, 1 CaCl2, 10 D-glucose, 2.5 HEPES, and 25 NaHCO3 (pH 7.4). The apical hemichamber was filled with buffer solution (in mM): 60 NaCl, 60 Na-gluconate, 5 KCl, 1 MgCl2, 1 CaCl2, 10 D-glucose, 2.5 HEPES, and 25 NaHCO3 (pH 7.4). FRT cells were bathed for a 10 min stabilization period and gassed with 5% CO2 and 95% O2 at 37 °C. The apical membrane current was recorded with an EVC4000 Multi-Channel V/I Clamp (World Precision Instruments, Sarasota, FL, USA) and a PowerLab 4/35 (AD Instruments, Castle Hill, Australia).

[2] = tested on: calcium-activated chloride currents in calf pulmonary artery endothelial (CPAE) cells; details: cited from earlier work
ANO1 = biological target: T2, ANO1 (Homo sapiens, UniProt Q5XXA6, DEL476-501); test: Apical membrane current of ANO1 in FRT cells expressing human ANO1; assay type: cell-based; details: 3 μM Eact
T2 construct: expressed in transfected cells; host or cells: Fisher rat thyroid (FRT) cells; The YFP assay uses FRT-ANO1-YFP cells, which also carry the halide sensor
T2 sequence (Q5XXA6 with tags, fused parts or gaps isoform Q5XXA6-5 DEL539-564): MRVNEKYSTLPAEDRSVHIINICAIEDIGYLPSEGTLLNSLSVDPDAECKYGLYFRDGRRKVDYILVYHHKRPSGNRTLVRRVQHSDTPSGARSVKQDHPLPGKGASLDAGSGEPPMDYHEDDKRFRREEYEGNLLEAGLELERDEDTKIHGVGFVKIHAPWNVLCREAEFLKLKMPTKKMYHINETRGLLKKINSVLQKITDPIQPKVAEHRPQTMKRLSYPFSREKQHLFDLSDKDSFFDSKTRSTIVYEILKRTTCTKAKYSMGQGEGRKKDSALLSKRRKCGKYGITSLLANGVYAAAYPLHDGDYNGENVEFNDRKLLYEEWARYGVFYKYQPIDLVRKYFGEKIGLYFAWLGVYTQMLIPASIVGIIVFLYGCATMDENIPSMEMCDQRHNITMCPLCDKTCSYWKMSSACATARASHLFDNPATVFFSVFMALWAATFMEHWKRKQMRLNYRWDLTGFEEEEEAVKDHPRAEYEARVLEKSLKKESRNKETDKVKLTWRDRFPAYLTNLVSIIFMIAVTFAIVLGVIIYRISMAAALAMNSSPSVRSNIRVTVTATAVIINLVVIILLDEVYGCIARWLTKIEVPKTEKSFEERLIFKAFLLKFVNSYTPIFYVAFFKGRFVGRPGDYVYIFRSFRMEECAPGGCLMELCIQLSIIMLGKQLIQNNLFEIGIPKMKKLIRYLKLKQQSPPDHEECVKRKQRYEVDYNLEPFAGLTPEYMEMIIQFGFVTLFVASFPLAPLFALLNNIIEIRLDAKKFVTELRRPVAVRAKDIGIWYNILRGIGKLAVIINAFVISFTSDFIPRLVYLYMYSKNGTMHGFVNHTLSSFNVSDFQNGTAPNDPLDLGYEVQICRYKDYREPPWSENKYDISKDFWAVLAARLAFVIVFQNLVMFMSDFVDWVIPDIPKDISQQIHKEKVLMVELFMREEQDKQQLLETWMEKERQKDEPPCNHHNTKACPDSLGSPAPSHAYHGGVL
Method: as §1, §2

hERG K+ channel = biological target: T3, hERG K+ channel (Homo sapiens, UniProt Q12809); test: FluxOR thallium flux assay in HEK293T cells expressing hERG; assay type: cell-based
T3 construct: expressed in transfected cells; called HEK293
Method: (C) Summary of dose-response (mean ± S.E., n = 5). […] (F) Summary of dose−response (mean ± S.E., n = 6).
HEK293 cells stably expressing human Kv11.1 (hERG) were cultured in 96-well plates. After 48 h, the cells were incubated at 28 °C for 4 h to increase the membrane expression of hERG. The culture medium was replaced with a 80 μL/well of FluxOR (Invitrogen, Waltham, MA, USA) loading buffer and incubated for 1 h at 37 °C in the dark. After removing the loading buffer, 100 μL of assay buffer was added to each well. […] FluxOR fluorescence (excitation/emission: 490/525 nm) was recorded for 4 s before the addition of 20 μL of stimulus buffer containing thallium ions, and the fluorescence was recorded. FluxOR fluorescence was recorded and analyzed using the FLUOstar Omega microplate reader (BMG Labtech, Ortenberg, Germany) and the MARS Data Analysis Software (BMG Labtech, Ortenberg, Germany). All buffers were prepared according to the manufacturer’s instructions.

NIH-3T3 cells = test: Cell viability (MTS/MTT) in NIH-3T3 cells; assay type: cell-based; details: 24 h, up to/at 30 μM
Method: […]. (A) Structure of VI-116. (B) Representative YFP fluorescence traces. The inhibitory effects of VI-116 on VRAC activity were determined using YFP fluorescence assay in LN215 cells. VRAC was activated by application of […] solution for 5 min. (C) Summary of VRAC dose-response (mean ± S.E., n = 4). (D) Summary of VRAC dose−response with 10% FBS (mean ± S.E., n = 4). […].
NIH-3T3 cells were plated on 96-well microplates. After 24 h incubation, cells were treated with VI-116 or DCPIB and incubated for 24 h. The culture medium and the compounds were changed every 12 h. To assess cell proliferation, the cells were incubated with MTS for 1 h. The soluble formazan produced by the cellular reduction of MTS was quantified by measuring the absorbance at 490 nm with an Infinite M200 (Tecan, Grödig, Austria) microplate reader. MTS assay was performed using a CellTiter 96 Aqueous One Solution Cell Proliferation Assay kit (Promega, Madison, WI, USA).

human ANO2 = biological target: T4, human ANO2 (Homo sapiens, UniProt Q9NQ90); test: YFP fluorescence quenching assay in FRT cells expressing human ANO2; assay type: cell-based; details: 30 μM, ANO2 activated by 100 μM ATP
T4 construct: expressed in transfected cells; host or cells: Fisher rat thyroid (FRT) cells
T4 sequence (Q9NQ90 1-998): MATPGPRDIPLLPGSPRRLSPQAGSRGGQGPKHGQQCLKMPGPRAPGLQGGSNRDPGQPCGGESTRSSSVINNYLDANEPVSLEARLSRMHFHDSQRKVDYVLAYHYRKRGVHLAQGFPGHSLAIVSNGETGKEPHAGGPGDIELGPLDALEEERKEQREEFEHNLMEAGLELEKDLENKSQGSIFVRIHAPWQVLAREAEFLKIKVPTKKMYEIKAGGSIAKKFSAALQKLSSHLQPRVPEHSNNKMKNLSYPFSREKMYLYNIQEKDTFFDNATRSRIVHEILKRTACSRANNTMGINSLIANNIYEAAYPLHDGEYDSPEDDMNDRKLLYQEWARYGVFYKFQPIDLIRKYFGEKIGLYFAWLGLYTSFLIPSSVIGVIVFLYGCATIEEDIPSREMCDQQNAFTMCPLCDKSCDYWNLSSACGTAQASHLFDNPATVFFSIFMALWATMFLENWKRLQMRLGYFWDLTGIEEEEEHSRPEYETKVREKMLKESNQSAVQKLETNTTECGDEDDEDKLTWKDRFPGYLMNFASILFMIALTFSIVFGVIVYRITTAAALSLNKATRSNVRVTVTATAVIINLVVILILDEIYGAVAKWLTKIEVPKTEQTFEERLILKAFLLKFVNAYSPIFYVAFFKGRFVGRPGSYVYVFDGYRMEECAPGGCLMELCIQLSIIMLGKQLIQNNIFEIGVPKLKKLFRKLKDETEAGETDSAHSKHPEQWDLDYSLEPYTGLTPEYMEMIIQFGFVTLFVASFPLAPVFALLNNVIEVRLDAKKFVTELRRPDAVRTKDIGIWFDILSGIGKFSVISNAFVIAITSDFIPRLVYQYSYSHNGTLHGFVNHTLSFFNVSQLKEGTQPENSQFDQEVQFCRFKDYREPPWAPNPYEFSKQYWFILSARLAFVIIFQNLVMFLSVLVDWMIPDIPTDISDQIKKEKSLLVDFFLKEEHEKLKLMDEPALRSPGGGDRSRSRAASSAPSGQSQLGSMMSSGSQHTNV
Method: ANO2 activity was measured using YFP fluorescence quenching assay in FRT cells expressing human ANO2.

T3 sequence (Q12809 whole entry): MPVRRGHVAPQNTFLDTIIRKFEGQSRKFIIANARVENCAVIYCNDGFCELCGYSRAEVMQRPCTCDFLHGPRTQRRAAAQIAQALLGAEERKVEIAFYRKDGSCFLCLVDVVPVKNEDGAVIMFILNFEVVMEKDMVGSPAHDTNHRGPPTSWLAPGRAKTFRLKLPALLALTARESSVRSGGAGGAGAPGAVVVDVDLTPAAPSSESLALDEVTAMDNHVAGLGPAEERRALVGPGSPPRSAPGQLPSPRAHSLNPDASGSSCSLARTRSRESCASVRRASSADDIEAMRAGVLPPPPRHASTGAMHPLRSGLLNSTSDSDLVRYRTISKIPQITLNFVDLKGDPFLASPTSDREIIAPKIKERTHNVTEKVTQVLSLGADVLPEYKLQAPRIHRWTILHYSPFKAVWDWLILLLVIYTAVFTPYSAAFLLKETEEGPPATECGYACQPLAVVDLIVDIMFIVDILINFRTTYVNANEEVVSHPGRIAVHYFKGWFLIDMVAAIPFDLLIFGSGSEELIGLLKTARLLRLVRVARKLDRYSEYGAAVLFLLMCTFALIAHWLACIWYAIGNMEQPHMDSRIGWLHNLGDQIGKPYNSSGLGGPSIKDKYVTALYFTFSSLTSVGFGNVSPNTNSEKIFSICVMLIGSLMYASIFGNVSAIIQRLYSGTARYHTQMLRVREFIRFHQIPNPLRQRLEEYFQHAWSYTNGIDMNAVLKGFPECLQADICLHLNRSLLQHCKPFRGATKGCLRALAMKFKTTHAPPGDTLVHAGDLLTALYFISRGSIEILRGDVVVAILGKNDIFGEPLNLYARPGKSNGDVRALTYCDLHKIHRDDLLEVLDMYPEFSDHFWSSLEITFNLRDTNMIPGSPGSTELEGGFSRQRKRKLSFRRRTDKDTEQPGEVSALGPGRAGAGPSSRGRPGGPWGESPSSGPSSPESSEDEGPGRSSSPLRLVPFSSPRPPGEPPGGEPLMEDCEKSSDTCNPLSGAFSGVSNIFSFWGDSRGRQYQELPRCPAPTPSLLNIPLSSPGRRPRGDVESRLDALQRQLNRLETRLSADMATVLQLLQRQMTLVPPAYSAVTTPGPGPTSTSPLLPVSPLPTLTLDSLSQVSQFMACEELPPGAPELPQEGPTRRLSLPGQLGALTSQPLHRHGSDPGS
T1 sequence (P13569 whole entry): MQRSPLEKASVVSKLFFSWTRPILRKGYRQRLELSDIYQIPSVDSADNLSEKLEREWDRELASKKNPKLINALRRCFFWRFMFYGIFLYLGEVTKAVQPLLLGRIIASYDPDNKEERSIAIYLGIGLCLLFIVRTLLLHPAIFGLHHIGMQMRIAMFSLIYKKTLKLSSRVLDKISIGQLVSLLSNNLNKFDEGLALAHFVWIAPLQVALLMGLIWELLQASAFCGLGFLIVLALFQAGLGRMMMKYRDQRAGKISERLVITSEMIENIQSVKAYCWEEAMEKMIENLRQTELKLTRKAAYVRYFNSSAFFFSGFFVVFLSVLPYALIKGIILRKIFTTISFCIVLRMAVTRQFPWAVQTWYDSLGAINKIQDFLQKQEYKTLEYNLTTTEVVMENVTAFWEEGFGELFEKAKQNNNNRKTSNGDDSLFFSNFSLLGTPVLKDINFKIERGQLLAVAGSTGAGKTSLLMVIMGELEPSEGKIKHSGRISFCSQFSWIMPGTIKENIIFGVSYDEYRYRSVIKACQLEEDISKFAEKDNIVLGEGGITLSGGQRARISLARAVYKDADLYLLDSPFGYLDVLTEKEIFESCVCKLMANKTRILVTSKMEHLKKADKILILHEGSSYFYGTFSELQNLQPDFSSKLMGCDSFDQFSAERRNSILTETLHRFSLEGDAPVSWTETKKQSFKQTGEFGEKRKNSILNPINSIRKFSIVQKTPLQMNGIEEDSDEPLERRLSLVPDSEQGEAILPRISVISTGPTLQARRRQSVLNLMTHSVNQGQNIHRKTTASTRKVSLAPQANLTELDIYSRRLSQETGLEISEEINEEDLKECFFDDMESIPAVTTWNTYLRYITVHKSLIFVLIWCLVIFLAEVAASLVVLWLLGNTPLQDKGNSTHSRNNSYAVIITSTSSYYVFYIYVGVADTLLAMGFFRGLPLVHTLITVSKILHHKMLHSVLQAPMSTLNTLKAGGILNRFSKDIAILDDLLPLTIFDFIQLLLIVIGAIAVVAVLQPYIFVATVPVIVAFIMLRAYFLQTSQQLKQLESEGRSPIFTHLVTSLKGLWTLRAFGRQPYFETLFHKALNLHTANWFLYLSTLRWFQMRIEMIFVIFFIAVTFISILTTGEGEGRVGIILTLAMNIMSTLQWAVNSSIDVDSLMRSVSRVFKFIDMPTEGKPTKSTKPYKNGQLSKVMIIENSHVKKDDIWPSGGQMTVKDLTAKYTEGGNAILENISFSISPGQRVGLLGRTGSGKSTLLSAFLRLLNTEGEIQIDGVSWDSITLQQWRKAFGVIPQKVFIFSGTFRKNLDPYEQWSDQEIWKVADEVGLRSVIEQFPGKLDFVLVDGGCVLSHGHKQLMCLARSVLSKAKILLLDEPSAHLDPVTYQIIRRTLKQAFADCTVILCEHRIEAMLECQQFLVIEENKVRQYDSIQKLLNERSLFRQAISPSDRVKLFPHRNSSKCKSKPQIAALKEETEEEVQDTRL

Structure (SMILES) | effect on ATP-induced intracellular calcium increase [1] | effect on hERG (hERG) | IC50 (human CFTR) [µM] | effect on calcium-activated chloride currents [2] | effect on Eact-activated ANO1 chloride current (ANO1; 10 μM) | effect on Eact-activated ANO1 chloride current (ANO1; 100 μM) | effect on hERG K+ channel activity (hERG K+ channel; 10 μM) | IC50 (hERG K+ channel; thallium flux, HEK293T cells expressing hERG, n = 6) [µM] | effect on cell viability (NIH-3T3 cells) | block of ANO2 (human ANO2)
CCCCC1(C2CCCC2)Cc2cc(OCCCC(=O)O)c(Cl)c(Cl)c2C1=O (stereo not shown) [DCPIB, 4-(2-butyl-6,7-dichlor-2-cyclopentylindan-1-on-5-yl) oxobutyric acid] | significantly affected; also recorded: strongly blocked; also recorded: potently blocked; also recorded: potently inhibited | did not inhibit | 71.7 | did not affect | increased | almost completely inhibited | significantly blocked | 11.4 | significantly reduced cell viability | –
CCc1c(C)nc(SCC(=O)Nc2nc(-c3ccc(OC)cc3)cs2)[nH]c1=O [T16Ainh-A01, reference compound] | – | – | – | – | – | – | – | – | – | completely blocked

— publication PMC9103758 (International Journal of Molecular Sciences, 2022)
